Reference: article PMC1084349 (BMC Neuroscience, 2005)
Where a SMILES comes first, the peptide text is derived from it.

Biological target: T1, rTas1r2-rTas1r3 V738A (Rattus norvegicus, UniProt Q923K1+Q9Z0R7, V738A)
T1 construct: expressed in transfected cells; host or cells: HEK293T cells stably expressing Gα16gust44
T1 sequence (Q9Z0R7 20-843): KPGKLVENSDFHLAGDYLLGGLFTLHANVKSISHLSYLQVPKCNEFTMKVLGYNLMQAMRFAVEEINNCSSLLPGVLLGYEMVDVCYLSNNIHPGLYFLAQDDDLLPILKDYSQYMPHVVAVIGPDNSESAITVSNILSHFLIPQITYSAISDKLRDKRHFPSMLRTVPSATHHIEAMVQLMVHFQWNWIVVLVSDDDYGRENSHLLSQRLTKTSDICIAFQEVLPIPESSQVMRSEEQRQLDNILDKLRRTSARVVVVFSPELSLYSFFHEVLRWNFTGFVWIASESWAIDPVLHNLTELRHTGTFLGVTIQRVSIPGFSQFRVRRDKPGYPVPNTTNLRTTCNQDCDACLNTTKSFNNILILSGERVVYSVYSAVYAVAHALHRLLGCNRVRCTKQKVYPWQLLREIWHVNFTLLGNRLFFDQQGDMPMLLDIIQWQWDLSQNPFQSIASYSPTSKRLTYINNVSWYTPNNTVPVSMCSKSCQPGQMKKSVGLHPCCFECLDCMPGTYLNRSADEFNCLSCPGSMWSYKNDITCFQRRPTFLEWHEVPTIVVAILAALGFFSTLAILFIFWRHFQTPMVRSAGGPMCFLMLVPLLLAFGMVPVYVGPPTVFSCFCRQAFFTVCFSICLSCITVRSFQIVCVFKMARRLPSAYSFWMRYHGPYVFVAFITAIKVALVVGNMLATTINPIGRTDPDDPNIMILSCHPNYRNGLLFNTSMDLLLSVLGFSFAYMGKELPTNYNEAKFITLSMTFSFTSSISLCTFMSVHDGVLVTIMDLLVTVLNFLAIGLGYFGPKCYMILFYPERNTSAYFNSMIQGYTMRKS
T1 sequence (Q923K1 21-858 V738A): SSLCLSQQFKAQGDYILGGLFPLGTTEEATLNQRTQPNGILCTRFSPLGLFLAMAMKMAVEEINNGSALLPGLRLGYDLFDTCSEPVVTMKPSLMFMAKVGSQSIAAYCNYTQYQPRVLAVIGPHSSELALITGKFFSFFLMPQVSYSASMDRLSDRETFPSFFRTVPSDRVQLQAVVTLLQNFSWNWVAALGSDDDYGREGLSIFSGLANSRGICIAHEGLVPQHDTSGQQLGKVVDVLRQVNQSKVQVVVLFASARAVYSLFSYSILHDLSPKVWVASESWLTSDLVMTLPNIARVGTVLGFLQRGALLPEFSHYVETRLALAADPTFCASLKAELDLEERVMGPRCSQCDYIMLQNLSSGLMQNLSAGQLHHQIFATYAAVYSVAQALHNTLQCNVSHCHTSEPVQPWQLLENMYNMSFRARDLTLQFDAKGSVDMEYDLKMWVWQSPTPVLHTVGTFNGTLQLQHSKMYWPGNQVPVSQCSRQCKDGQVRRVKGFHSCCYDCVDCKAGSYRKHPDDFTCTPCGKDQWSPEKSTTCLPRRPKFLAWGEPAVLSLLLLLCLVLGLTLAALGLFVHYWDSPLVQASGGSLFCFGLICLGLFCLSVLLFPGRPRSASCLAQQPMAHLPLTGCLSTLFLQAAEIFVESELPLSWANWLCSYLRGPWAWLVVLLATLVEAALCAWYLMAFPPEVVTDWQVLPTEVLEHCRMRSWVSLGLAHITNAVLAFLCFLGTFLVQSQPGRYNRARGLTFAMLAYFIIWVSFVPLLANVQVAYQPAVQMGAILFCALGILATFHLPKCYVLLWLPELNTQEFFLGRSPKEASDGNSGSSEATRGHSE
Experiment: Calcium mobilization (FLIPR), rTas1r3-V738A variant
Assay type: cell-based
Details: asp 15 mM; cyc 30 mM; neo 0.1 mM; sac 10 mM; suc 100 mM; stev 1 mM
Description: Receptor mutants were generated by site directed mutagenesis according to the QuikChange protocol (Stratagene). The forward and reverse complement primers contained the desired mutations and annealed to the same sequence on opposite strands of the plasmids. The following rTas1r3 receptor variants were generated: m1: S576L; m2: R632Q, S635P, S637Q; m3: M644L A645S; m4: A702T; m5: Q717H, V718M, V723A, E725V; m6: L735F, V738A, I740A. m6/1: V738A, I740A, m6/2: L735F, I740A, m6/3: L735F, V738A. m7: A793V, Y794L, Q795R. Subsequently a rTas1r3-V738A variant was generated. All constructs were checked by sequencing.
The cDNAs were transiently transfected into HEK293T cells stably expressing the chimeric G-protein subunit Gα16gust44 [20] using Lipofectamine 2000 (Invitrogen) according to the manufacturer's protocol. 3–4 hours after transfection, DMEM was replaced by low-glucose DMEM supplemented with GlutaMAX and 10% dialyzed FBS (Invitrogen). 22–44 hours later, cells were loaded for 1 hour with the calcium sensitive dye Fluo4-AM (2 μg/ml in DMEM, Molecular Probes). […] Calcium mobilization was monitored by an automated fluorometric imaging plate reader (FLIPR, Molecular Devices). Ligands (Sigma-Aldrich, Merck) were dissolved in C1 solution. All data were collected from at least two independent experiments carried out in triplicate. The obtained calcium signals were corrected for the response of mock transfected cells and normalized to the fluorescence of cells prior to the stimulus using ΔF/F=(F-F0)/F0.
(a, b) Responses of cells co-transfected with rTas1r2 and rTas1r3 mutants to stimulation with 1 mM stevioside. […] All sweeteners were used at concentrations which were close to the maximal obtainable signal.

Structure (SMILES) | activation of receptor (calcium response)
COC(=O)[C@H](Cc1ccccc1)NC(=O)[C@@H](N)CC(=O)O [aspartame] (HELM PEPTIDE1{D.F.[CO[*:1]]}$$$$V2.0) | not
O=S(=O)(O)NC1CCCCC1 [cyclamate] | not

Further lines, results first:

activation of receptor (calcium response) | Structure (SMILES)
not | COc1ccc(CCC(=O)c2c(O)cc(O[C@@H]3O[C@H](CO)[C@@H](O)[C@H](O)[C@H]3O[C@@H]3O[C@@H](C)[C@H](O)[C@@H](O)[C@H]3O)cc2O)cc1O [neohesperidine dihydrochalcone]
activated | C=C1C[C@@]23CC[C@H]4[C@@](C)(CCC[C@@]4(C)C(=O)O[C@@H]4O[C@H](CO)[C@@H](O)[C@H](O)[C@H]4O)[C@@H]2CC[C@]1(O[C@@H]1O[C@H](CO)[C@@H](O)[C@H](O)[C@H]1O[C@@H]1O[C@H](CO)[C@@H](O)[C@H](O)[C@H]1O)C3 [stevioside]
activated | OC[C@H]1O[C@@](CO)(O[C@H]2O[C@H](CO)[C@@H](O)[C@H](O)[C@H]2O)[C@@H](O)[C@@H]1O [sucrose]
